# Entries after “also recorded” stand apart in the source; their conditions may differ. Counter-ions that a name gives are not always drawn. Like-named read-outs stand apart in the source and are kept apart here. Marks after values point to notes of the source that are not given here.
# Experiments:
# [1] = Cytotoxicity in H9c2 cells (CCK-8); assay type: cell-based; conditions: rat, H9c2 cells; H9c2 cell line
# Summary of the method: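 H9c2 cells were grown in DMEM with 10% FBS, seeded the day before, and exposed to a range of di-amidine concentrations for 24 h at 37 °C, 5% CO2. Viability was read by CCK-8 after 3 h at 37 °C as absorbance at 450 nm.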
# E. coli (ATCC 25922) = assay: MIC determination, sensitization fold and FIC index on E. coli; assay type: cell-based; conditions: for MIC: Escherichia coli
# Summary of the method: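 E. coli in cation-adjusted Mueller Hinton II, 5×10^5 CFU/ml, 24 h at 37 °C shaking; rifampicin two-fold serial dilutions with or without fixed sensitizer (10 μM).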
# MRSA (ATCC 33592) = assay: MIC determination and sensitization fold on MRSA; assay type: cell-based, methicillin-resistant Staphylococcus aureus; conditions: MRSA; for Sensitization fold: rifampicin
# HEK293 cells = assay: Cytotoxicity on mammalian cells (CCK-8), HEK293; assay type: cell-based; conditions: for CC50: HEK293 cell line, 24 h; for IC50: Homo sapiens
# Summary of the method: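 Cells seeded a day ahead to ~80% confluency, exposed to varied compound concentrations for 24 h at 37° C, 5% CO2. CCK-8 added for a further 2 h and OD 450 nm read; viability expressed as percent of untreated control.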
# E. coli [2] = assay: Lysozyme assay (outer membrane disruption); assay type: cell-based; conditions: for bacterial lysis by lysozyme in the presence of sensitizer: 50 μg/ml lysozyme, 10 min; for bacterial lysis by sensitizer itself: absence of lysozyme
# Protocol: Lysozyme assay to evaluate the disruption of Gram-negative bacteria out membrane by bacterial sensitizers. Lysozyme assay was performed based on literature reported method. E. coli was cultured in Mueller Hinton II cation-adjusted broth for overnight, centrifuged at 3000 g for 10 min, washed with HEPES buffer (pH=7.2) and then centrifuged again to obtain bacteria pallet. The pallet was then gently resuspended in HEPES buffer with 5 mM NaCN to obtain an E. coli suspension with OD600 between 0.8˜1.0. On a 96-well plate, each well was supplied with 100 μl lysozyme solution (100 μg/ml) containing 50 or 100 μg/ml bacterial sensitizers in HEPES buffer. To each well was added 100 μl E. coli suspension. The final concentration of lysozyme was 50 μg/ml. The plate was incubated at room temperature for 10 min and the OD600 was recorded. E. coli was also incubated with bacterial sensitizers in the absence of lysozyme to test if bacterial sensitizers would directly induce bacterial lysis. E. coli that was incubated with lysozyme alone or E. coli without any treatment were also used as negative control.
# E. coli [3] = assay: Influence of exogenous LPS and Mg2+ on bacterial sensitizer; assay type: cell-based; conditions: for effect of extra LPS in culture media on sensitization: LPS 0 to 40 μM; for effect of Mg2+ on sensitization activity: exogenous Mg2+; for Sensitization fold: rifampicin
# Protocol: The MICs of bacterial sensitizer and antibiotic combination in the presence of LPS (ranging from 0 to 40 μM) or Mg^2+ (ranging from 0 to 20 mM) was determined as described above (Bacteria culture and MICs determination section).
# Various experiments were then conducted to examine the molecular target(s). […] Briefly, E. coli was treated with 5 μg/ml MD-124 (about 10 μM) with varying concentrations of LPS (from 0 to 40 μM) for 20 h. Then OD600 was measured.
# Briefly, E. coli was treated with […] MD-124 (about 10 μM) with varying concentrations of Mg^2+ (from 0 to 15 mM) for 20 h. Then OD600 was measured.
# [4] = 10 μM compound, rifampicin as the antibiotic (Table 6)
# [5] = E. coli, rifampicin, compound at 10 μM
smiles,measurement,setting,value
"Cc1cc(COc2ccc(C(=N)N)cc2)cc(COc2ccc(C(=N)N)cc2)c1 [MD-100, 4,4′-(((5-methyl-1,3-phenylene)bis(methylene))bis(oxy))dibenzimidamide dihydrochloride]",CC50 at 24 h,[1],50 µM
same,Sensitization fold,E. coli (ATCC 25922); [4],8 fold
same,Sensitization fold,"E. coli (ATCC 25922); E. coli, rifampicin, 10 μg/ml bacterial sensitizer",32^a fold
same,Sensitization fold,E. coli (ATCC 25922); [5],8-fold at 10 μM
same,Sensitization fold,"E. coli (ATCC 25922); E. coli, rifampicin, compound at 25 μM",32-fold at 25 μM
same,MIC,"E. coli (ATCC 25922); ATCC25922, 24 h",100 µM
same,Sensitization fold,"E. coli (ATCC 25922); wild-type E. coli towards erythromycin, 10 μg/ml MD-100",32 fold
same,Sensitization fold,MRSA (ATCC 33592); compound at 6 μM,32-fold at 6 μM
same,CC50,HEK293 cells,100 µM
same,IC50,HEK293 cells; HEK293,100 µM
same,bacterial lysis by lysozyme in the presence of sensitizer,E. coli [2]; 50 μg/ml sensitizer,quick bacterial lysis
same,bacterial lysis by sensitizer itself,E. coli [2],did not lead to bacterial lysis
same,effect of extra LPS in culture media on sensitization,E. coli [3],abolished the sensitization effect
same,effect of Mg2+ on sensitization activity,E. coli [3],decreased the sensitization ability
"N=C(N)c1ccc(COc2cc(OCc3ccc(C(=N)N)cc3)cc(C(F)(F)F)c2)cc1 [MD-124, 4,4′-(((5-(trifluoromethyl)-1,3-phenylene)bis(oxy))bis(methylene)) dibenzimidamide dihydrochloride]",CC50 at 24 h,[1],50 µM
same,Sensitization fold,E. coli (ATCC 25922); [4],512 fold
same,Sensitization fold (checkerboard assay),"E. coli (ATCC 25922); E. coli toward rifampicin, ~10 μg/ml MD-124","over 16,000 fold"
same,effect on bacterial growth (OD600 at different time points),"E. coli (ATCC 25922); E. coli, 5 μg/ml compound alone, no antibiotic, dihydrochloride",no bacterial the growth inhibition effect; also recorded: no effect on bacterial growth
same,Sensitization fold,"E. coli (ATCC 25922); E. coli, rifampicin, 5 μg/ml bacterial sensitizer",512 fold
same,Sensitization fold,E. coli (ATCC 25922); [5],512-fold at 10 μM
same,MIC,"E. coli (ATCC 25922); ATCC25922, 24 h, E. coli, compound alone, read-out: MIC",100 µM
same,MIC,"E. coli (ATCC 25922); ATCC25922, E. coli, read-out: MIC of MD-124 itself",50 µg/mL
same,Sensitization fold,"E. coli (ATCC 25922); wild type E. coli towards rifampin, 3 μg/ml MD-124",16 fold
same,Sensitization fold,"E. coli (ATCC 25922); wild-type E. coli towards clarithromycin, 5 μg/ml sensitizer",256 fold
same,Sensitization fold,MRSA (ATCC 33592); compound at 5 μM,32-fold at 5 μM
same,MIC,"MRSA (ATCC 33592); Staphylococcus aureus, 24 h, compound alone, read-out: MIC",10 µM
same,CC50,HEK293 cells,100 µM
same,IC50,"HEK293 cells; HEK293 cells (Table 6), read-out: IC50",100 µM
same,bacterial lysis by lysozyme in the presence of sensitizer,E. coli [2]; 25 μg/ml sensitizer,quick bacterial lysis
same,bacterial lysis by sensitizer itself,E. coli [2],did not lead to bacterial lysis
same,MIC of rifampicin with 5 μg/ml MD-124,"E. coli [3]; LPS 0 μM, rifampicin only 10 μg/ml",0.02
same,effect of extra LPS in culture media on sensitization,E. coli [3],abolished the sensitization effect
same,MIC of rifampicin with 5 μg/ml MD-124,E. coli [3]; LPS 5 μM,2.5
same,MIC of rifampicin with 5 μg/ml MD-124,E. coli [3]; LPS 10 μM,2.5
same,MIC of rifampicin with 5 μg/ml MD-124,E. coli [3]; LPS 20 μM,5
same,MIC of rifampicin with 5 μg/ml MD-124,E. coli [3]; LPS 40 μM,5
same,MIC of rifampicin with 5 μg/ml MD-124,E. coli [3]; LPS […],1.25
same,MIC of rifampicin with 5 μg/ml MD-124,"E. coli [3]; Mg2+ 0 mM, rifampicin only 10 μg/ml",0.02
same,MIC of rifampicin with 5 μg/ml MD-124,E. coli [3]; Mg2+ 1.25 mM,0.02
same,MIC of rifampicin with 5 μg/ml MD-124,E. coli [3]; Mg2+ 5 mM,1.25
same,MIC of rifampicin with 5 μg/ml MD-124,E. coli [3]; Mg2+ 10 mM,2.5
same,MIC of rifampicin with 5 μg/ml MD-124,E. coli [3]; Mg2+ 15 mM,5
same,MIC of rifampicin with 5 μg/ml MD-124,E. coli [3]; Mg2+ […],0.04
same,effect of Mg2+ on sensitization activity,E. coli [3],dampened the bacterial sensitization activity
same,Sensitization fold,"E. coli [3]; 5 μg/ml MD-124, LPS 0 μM",512 fold
same,Sensitization fold,"E. coli [3]; 5 μg/ml MD-124, LPS 5 μM",4 fold
same,Sensitization fold,"E. coli [3]; 5 μg/ml MD-124, LPS 10 μM",4 fold
same,Sensitization fold,"E. coli [3]; 5 μg/ml MD-124, LPS 20 μM",2 fold
same,Sensitization fold,"E. coli [3]; 5 μg/ml MD-124, LPS 40 μM",2 fold
same,Sensitization fold,"E. coli [3]; 5 μg/ml MD-124, LPS […]",8 fold
same,Sensitization fold,"E. coli [3]; 5 μg/ml MD-124, Mg2+ 0 mM",512 fold
same,Sensitization fold,"E. coli [3]; 5 μg/ml MD-124, Mg2+ 5 mM",8 fold
same,Sensitization fold,"E. coli [3]; 5 μg/ml MD-124, Mg2+ 10 mM",4 fold
same,Sensitization fold,"E. coli [3]; 5 μg/ml MD-124, Mg2+ 15 mM",2 fold
same,Sensitization fold,"E. coli [3]; 5 μg/ml MD-124, Mg2+ […]",256 fold

# — patent publication US20230105108A1, “COMPOUNDS FOR THE TREATMENT OF BACTERIAL INFECTIONS AND POTENTIATION OF ANTIBIOTICS” (GEORGIA STATE UNIVERSITY RESEARCH FOUNDATION, INC., priority 2019, published 2023)
